Measurements from PubChem BioAssay (NCI).
“And” between values parts separate entries of the source, which are not always exact repeats. Equal entries are not always repeated.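 All cell lines were grown in 96-well plates and treated with compound for 48 hours. Here, GI50 denotes the concentration required for 50% inhibition of growth. At the TGI there is no net growth.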

Experiments:
Test in all cases: NCI anticancer screen, dose series, 48 h
[1] = test system: COLO 205 colon
[2] = test system: UACC-62 melanoma
[3] = test system: SF-295 CNS
[4] = test system: SW-620 colon
[5] = test system: HOP-92 NSCLC
[6] = test system: SK-MEL-5 melanoma
[7] = test system: OVCAR-8 ovarian
[8] = test system: A498 renal
[9] = test system: SNB-75 CNS
[10] = test system: SK-MEL-28 melanoma

| Compound | TGI [1] | TGI [2] | TGI [3] | TGI [4] | TGI [5] | TGI [6] | TGI [7] | TGI [8] | TGI [9] | TGI [10] | GI50 [1] | GI50 [10] | GI50 [2] | GI50 [3] | GI50 [4] | GI50 [5] | GI50 [6] | GI50 [8] | GI50 [9] | GI50 [7] |
| --- | --- | --- | --- | --- | --- | --- | --- | --- | --- | --- | --- | --- | --- | --- | --- | --- | --- | --- | --- | --- |
| CCOC(=O)CCn1[nH]c(=O)c(Cl)c(Cl)c1=O | > 100 µM | > 100 µM | > 100 µM | > 100 µM | > 100 µM | > 100 µM | > 100 µM | > 100 µM | > 100 µM | > 100 µM |  |  |  |  |  |  |  |  |  |  |
| CN(C)C(c1ccccc1)C(O)c1ccccc1 (centres undefined) | > 100 µM | > 100 µM | > 100 µM | > 100 µM |  |  |  | > 100 µM | > 100 µM | > 100 µM |  |  |  |  |  |  |  |  |  |  |
| COc1ccc2c3c(coc13)C(CCC(=O)O)CC2 (centres undefined) | > 100 µM | > 100 µM | > 100 µM | > 100 µM |  | > 100 µM | > 100 µM | > 100 µM | > 100 µM | > 100 µM |  |  |  |  |  |  |  |  |  |  |
| CC(C)N1CN(C(C(=O)N[C@@H]2C(=O)N3C2SC(C)(C)C3C(=O)O)c2ccccc2)CSC1=S (some centres undefined) | > 100 µM | > 100 µM | > 100 µM |  | > 100 µM | > 100 µM | > 100 µM | > 100 µM | > 100 µM | > 100 µM |  |  |  |  |  |  |  |  |  |  |
| CCc1ccc(Nc2ccc([N+](=O)[O-])cc2[N+](=O)[O-])cc1 |  | > 100 µM | > 100 µM | > 100 µM |  | > 100 µM | > 100 µM | 66.9 µM | > 100 µM | > 100 µM |  |  |  |  |  |  |  |  |  |  |
| N#CCc1ccc(C(C#N)/C(CCCC(=O)Nc2cccc([N+](=O)[O-])c2)=N/NC(N)=S)cc1 (centres undefined) | > 100 µM | > 100 µM | > 100 µM | > 100 µM | > 100 µM | > 100 µM |  | > 100 µM | > 100 µM | > 100 µM |  |  |  |  |  |  |  |  |  |  |
| COc1ccc(/C=C\c2cc(OC)c(OC)c(OC)c2)cc1OC(=O)NCCN(C)C | 4.69 µM | > 25.7 µM |  |  | 0.00065 µM and < 0.0393 µM | 0.0474 µM | 0.638 µM | 0.0303 µM | 32.8 µM | 43.1 µM | 0.187 µM | < 0.0001 µM |  |  |  |  |  |  |  |  |
| Cc1ccc(-c2cc(=O)c3cc(C)c(C)c(C(=O)O)c3o2)cc1C | > 100 µM | > 100 µM | > 100 µM | > 100 µM | > 100 µM | > 100 µM | > 100 µM |  | > 100 µM | > 100 µM |  |  |  |  |  |  |  |  |  |  |
| COc1cc2c(c(OC)c1)C1(CC(CC#N)C2)SCCS1 (centres undefined) | > 100 µM | > 100 µM |  | > 100 µM |  | > 100 µM | > 100 µM | > 100 µM | > 100 µM | > 100 µM |  |  |  |  |  |  |  |  |  |  |
| COc1ccc(-n2cc(-c3cc(OC)c(OC)c(OC)c3)[nH]c2=O)cc1Cl | > 100 µM | > 100 µM | > 100 µM | > 100 µM | > 100 µM | > 100 µM |  | > 100 µM | 28.8 µM | > 100 µM | > 100 µM | > 100 µM | 51.1 µM | 48.9 µM | > 100 µM | 15 µM | > 100 µM | 73.9 µM | 6.69 µM |  |
| Fc1ccc(C2SCc3nc4ccccc4n32)cc1Cl (centres undefined) | 28.6 µM | 25.6 µM | 98.1 µM | > 100 µM | 30.1 µM |  | 48.1 µM | > 100 µM |  | 61.2 µM |  |  |  |  |  |  |  |  |  |  |
| N.N.O=C([O-])P(=O)([O-])[O-].[Na+].[Pt+4] | > 100 µM | > 100 µM | > 100 µM | > 100 µM |  | > 100 µM | > 100 µM | > 100 µM | > 100 µM | > 100 µM | > 100 µM | > 100 µM | > 100 µM | > 100 µM | > 100 µM |  | > 100 µM | > 100 µM | > 100 µM | > 100 µM |
| O=C(/C(=C/c1cccc([N+](=O)[O-])c1)c1ccccc1)c1ccccc1 | 13.3 µM | 12.1 µM | 20.2 µM | 9.19 µM | 6.95 µM | 6.73 µM |  | 12.9 µM | 7.65 µM | 8.97 µM | 3.82 µM | 2.84 µM | 2.8 µM | 4.08 µM | 3.1 µM | 1.97 µM | 2.39 µM | 2.69 µM | 2.3 µM |  |
| C/C=C1/C(=C/c2[nH]c(/C=c3\[nH]/c(=C/C4=NC(=O)C(CC)=C4C)c(C)c3CCC(=O)O)c(CCC(=O)O)c2C)NC(=O)C1C (centres undefined) | > 150 µg/mL | > 150 µg/mL |  | > 150 µg/mL | > 150 µg/mL | > 150 µg/mL | > 150 µg/mL | > 150 µg/mL | > 150 µg/mL | > 150 µg/mL | > 150 µg/mL | > 150 µg/mL | > 150 µg/mL |  | > 150 µg/mL | 103 µg/mL | > 150 µg/mL | > 150 µg/mL | > 150 µg/mL | > 150 µg/mL |
| CCO/N=C(/N)c1ncn(Cc2ccccc2)c1NCC(OCC)OCC | > 100 µM | > 100 µM | > 100 µM | > 100 µM |  | > 100 µM | > 100 µM | > 100 µM | > 100 µM |  |  |  |  |  |  |  |  |  |  |  |
| COc1ccc(CNc2nc3cc(C(F)(F)F)ccc3nc2C)cc1OC | > 100 µM | > 100 µM | > 100 µM | > 100 µM |  | 31.3 µM | > 100 µM | 83.6 µM | 61.4 µM | > 100 µM |  |  |  |  |  |  |  |  |  |  |
| COc1ncc(-c2ccc3ncnc(Nc4cccc(Cl)c4)c3c2)cc1NS(=O)(=O)CCN1CCOCC1 |  |  |  | > 100 µM |  |  | > 100 µM |  | 0.739 µM |  |  |  |  |  | 1.25 µM |  |  |  | < 0.01 µM | 0.7 µM |
| CC(=O)N1C/C(=C\c2ccc(N(C)C)cc2)C(=O)/C(=C/c2ccc(N(C)C)cc2)C1 |  | > 100 µM | > 100 µM | > 100 µM | > 100 µM | > 100 µM | > 100 µM | > 100 µM | 49.4 µM | > 100 µM |  |  |  |  |  |  |  |  |  |  |
| COc1cc2c(c(OC)c1OC)C(=O)[C@@H]1c3ccc([N+](=O)[O-])cc3C(=O)N(CCCBr)[C@H]21 | > 100 µM | > 100 µM | 19.7 µM | > 100 µM | 78.6 µM | 27.5 µM | 37.6 µM |  | 45.1 µM | > 100 µM | 9.86 µM | 33.1 µM | > 100 µM | 2.04 µM | 20 µM | 16.1 µM | 11 µM |  | 9.46 µM | 10.2 µM |
